For series [1], the system named is PD1-ss+10aa/Gaussia Luciferase. Put plainly: Dox-Induced PD1-ss-Gluc Assay. The format is cell-based. As to conditions: 24 hr Dox induction, 293FRT/TO cells, read-out: 24 hr Dox Inducible PD1ssGluc 293FRT/TO: Mean IC50. An outline of the steps:
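Compounds were added in DMSO/media with doxycycline and incubated at 37 °C, 5% CO2, on 293 T-REx cells plated one day earlier. These cells stably express, under tetracycline-regulated control, a Gaussia luciferase fused to the PD1 signal peptide plus 10 residues. Structures drawn without stereochemistry were tested as stereoisomer mixtures.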

A short description of series [2]: Liver Microsome Stability Assay (human). As to conditions: human liver microsomes, with NADPH, 1.0 uM compound.
Description: (§1) Stability of a compound was assessed in the presence of liver microsomes from various sources—mouse, rat, monkey and human liver microsomes. 1.0 uM compound, 0.4% DMSO in 0.1 M Potassium Phosphate with 1.0 mg/mL liver microsomes, were incubated at 37° C. with or without 1 mM NADPH. The samples were quenched at 0, and 30 minutes.
The subject of series [3] is multiple myeloma cell line U266B1. Kind of series: U266 Cell Viability Assay. The format is cell-based, human. As to conditions: Homo sapiens, U-266, 48 h, U266B1 cells, Celltiter-Glo. An outline of the steps: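 Luminescent ATP read-out (CellTiter-Glo) after 48 h compound exposure at 37° C., 5% CO2; cells maintained in RPMI 1640/10% FBS/2 mM glutamine/pen-strep, compounds diluted in DMSO/media.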

Series [4] relates to HER3-ss+4aa/Gaussia Luciferase. Kind of series: Dox-Induced Her3-ss-Gluc Assay. The format is cell-based. The following applies: 24 hr Dox induction, 293FRT/TO cells, read-out: 24 hr Dox Inducible Her3(ss + 4)Gluc 293FRT/TO: Mean IC50. An outline of the steps:
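Flp-In 293 T-REx cells, stable HER3-ss+4aa/Gaussia luciferase insert, hygromycin/blasticidin selected; plated day before; compound in DMSO/media + doxycycline; 37° C., 5% CO2.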

Series [5] is described as follows: Liver Microsome Stability Assay (rat). The following applies: rat liver microsomes, with NADPH, 1.0 uM compound.
Description: as §1
Series [6] in a line: Liver Microsome Stability Assay (monkey). As to conditions: monkey liver microsomes, with NADPH, 1.0 uM compound.
Description: as §1
In series [7] the test system is IL-2-FL/Gaussia Luciferase. Put plainly: Dox Induced IL2-FL-Gluc Assay. The format is cell-based. As to conditions: for IC50: 24 hr Dox induction, 293FRT/TO cells, read-out: 24 hr Dox Inducible IL2FLGluc 293FRT/TO: Mean IC50; for 24 hr Dox Inducible IL2FLGluc 293FRT/TO: IL2/PD1: ratio of IL2FLGluc IC50 to PD1ssGluc IC50. An outline of the steps:
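Stable Flp-In 293 T-REx line, Tet-regulated IL-2 (aa 1-153)–Gaussia luciferase fusion; hygromycin/blasticidin selected. Plated day -1; compound + doxycycline added next day; 37° C, 5% CO2.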

The subject of series [8] is multiple myeloma cell line NCI-H929. Put plainly: H929 Cell Viability Assay. The following applies: Homo sapiens, NCI-H929, 48 h, NCI-H929 cells, Celltiter-Glo. The format is cell-based, human. An outline of the steps:
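Cells in RPMI 1640/10% FBS; compound dilutions in DMSO/media; 48 h, 37° C, 5% CO2; CellTiter-Glo luciferase readout for viability.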

The nature of series [9]: Liver Microsome Stability Assay (mouse). As to conditions: mouse liver microsomes, with NADPH, 1.0 uM compound.
Description: as §1
In series [10] the test system is TNFα-FL/Gaussia Luciferase. Kind of series: Dox Induced TNFα-FL-Gluc Assay. The format is cell-based. As to conditions: for IC50: 24 hr Dox induction, 293FRT/TO cells, read-out: 24 hr Dox Inducible TNFaFLGluc 293FRT/TO: Mean IC50; for 24 hr Dox Inducible TNFaFLGluc 293FRT/TO: TNF/PD1: ratio of TNFaFLGluc IC50 to PD1ssGluc IC50. In short, it runs like this:
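Cell line: stable Flp-In 293 T-REx, TNFα-FL(1-233)-Gaussia luciferase fusion, T-REx-inducible. Plated day -1; compounds in DMSO/media + doxycycline, 37 °C, 5% CO2. Undefined stereocentres = mixture tested.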

Read-outs that look alike come from different tables or passages of the source.

Turning to `O=C(Nc1ccccn1)c1csc(NC(=O)c2cccn2Cc2ccncc2)n1` [Compound E53], the IC50 in [1] (mean), in series [4] (mean), in series [7] (mean) and in [10] (mean) was > 25000 nM in each case. Besides, the “Liver Microsome Stability (Multiple Species): Human - % Remaining after 30 min w/NADPH” value in series [2] is listed as 7.99%. In addition, the 50% effective concentration (EC50) in series [3] and in series [8] was > 25000 nM in each case. The “Liver Microsome Stability (Multiple Species): Rat - % Remaining after 30 min w/NADPH” value in series [5] is recorded as 5.58%. Further, the “Liver Microsome Stability (Multiple Species): Monkey - % Remaining after 30 min w/NADPH” value in [6] came to 2.89%. Further, the “24 hr Dox Inducible IL2FLGluc 293FRT/TO: IL2/PD1” value in series [7] ('<=>' given where both are I.A.) is 1. For the same molecule, in [9], the “Liver Microsome Stability (Multiple Species): Mouse - % Remaining after 30 min w/NADPH” value is listed as 5%.
On to `O=C(Nc1nc(/C=C/C2CN(S(=O)(=O)c3ccccc3)CCO2)cs1)c1cccn1Cc1ccncc1` (centres unmarked) [Compound B9, (E)-N-(4-(2-(4-(phenylsulfonyl)morpholin-2-yl)vinyl)thiazol-2-yl)-1-(pyridin-4-ylmethyl)-1H-pyrrole-2-carboxamide], for which the IC50 in series [1] was 910 nM; in [4], 1610 nM; in series [7], 1850 nM; in [10], > 25000 nM. The “Liver Microsome Stability (Multiple Species): Human - % Remaining after 30 min w/NADPH” value in series [2] amounted to 0.41%. Also, the values for the EC50 in series [3] and in series [8] were 10400 nM and 15200 nM, respectively. Besides, the “Liver Microsome Stability (Multiple Species): Rat - % Remaining after 30 min w/NADPH” value in [5] was found to be 3.44%. Moreover, the “Liver Microsome Stability (Multiple Species): Monkey - % Remaining after 30 min w/NADPH” value in series [6] is recorded as 0.17%. Further, in [7], the “24 hr Dox Inducible IL2FLGluc 293FRT/TO: IL2/PD1” value amounted to 2. For the same molecule, the “Liver Microsome Stability (Multiple Species): Mouse - % Remaining after 30 min w/NADPH” value in series [9] came out at 0.31%. Besides, in series [10], the “24 hr Dox Inducible TNFaFLGluc 293FRT/TO: TNF/PD1” value was >27.5.
Turning to `CN(C)C(=O)c1ccc(N2CCC[C@@H]2c2csc(NC(=O)c3cccn3Cc3ccncc3)n2)cc1` [Compound A18, (R)-N-(4-(1-(4-(dimethylcarbamoyl)phenyl)pyrrolidin-2-yl)thiazol-2-yl)-1-(pyridin-4-ylmethyl)-1H-pyrrole-2-carboxamide], the IC50 in [1] came to 64.2 nM; in series [4], 109 nM; in [7] it was 145 nM; in series [10], 1020 nM. Further, the “Liver Microsome Stability (Multiple Species): Human - % Remaining after 30 min w/NADPH” value in series [2] came to 0.05%. Moreover, the figures for the 50% effective concentration (EC50) in [3] and in series [8] were > 25000 nM and 1580 nM, respectively. In series [5], the “Liver Microsome Stability (Multiple Species): Rat - % Remaining after 30 min w/NADPH” value is given as 0.17%. Further, the “Liver Microsome Stability (Multiple Species): Monkey - % Remaining after 30 min w/NADPH” value in series [6] stood at 0.08%. The “24 hr Dox Inducible IL2FLGluc 293FRT/TO: IL2/PD1” value in series [7] came out at 2.3. In addition, in series [9], the “Liver Microsome Stability (Multiple Species): Mouse - % Remaining after 30 min w/NADPH” value is given as 3.75%. For the same molecule, the “24 hr Dox Inducible TNFaFLGluc 293FRT/TO: TNF/PD1” value in [10] is given as 15.9.
As to `O=C(Nc1nc(-c2ccccc2-c2ccccn2)cs1)c1cccn1Cc1ccnc(F)c1` [Compound A168, 1-((2-fluoropyridin-4-yl)methyl)-N-(4-(2-(pyridin-2-yl)phenyl)thiazol-2-yl)-1H-pyrrole-2-carboxamide], the IC50 in series [1] came to 35 nM; in series [4], 60.5 nM; in [7], 53.7 nM; in [10], 569 nM. The “Liver Microsome Stability (Multiple Species): Human - % Remaining after 30 min w/NADPH” value in [2] is on record as 0.45%. In addition, the EC50 in series [3] was > 25000 nM; in series [8], 2710 nM. In addition, the “Liver Microsome Stability (Multiple Species): Rat - % Remaining after 30 min w/NADPH” value in series [5] stood at 0.52%. The “Liver Microsome Stability (Multiple Species): Monkey - % Remaining after 30 min w/NADPH” value in series [6] was 0.02%. In addition, in series [7], the “24 hr Dox Inducible IL2FLGluc 293FRT/TO: IL2/PD1” value is 1.5. For the same molecule, in series [9], the “Liver Microsome Stability (Multiple Species): Mouse - % Remaining after 30 min w/NADPH” value worked out at 0.09%. Further, the “24 hr Dox Inducible TNFaFLGluc 293FRT/TO: TNF/PD1” value in series [10] amounted to 16.3.

The values are drawn from patent publication US20230286973A1, “PROTEIN SECRETION INHIBITORS” (KEZAR LIFE SCIENCES, priority 2020, published 2023).
